# System: peripheral blood mononuclear cells (PBMC)
# Assay: Cytokine and immune-function gene expression of PBMC in vitro (qRT-PCR, 41 immune-related genes)
# Assay type: cell-based, human
# Conditions: Group A
# Protocol: After a screening visit at which blood was drawn to test for IgG antibody against HSV-1 and subjects were interviewed for inclusion/exclusion criteria, selected subjects returned for blood draws on day 1. After the blood draw on day 1, subjects in group A only were dosed with SADBE. A petrolatum donut was applied with a cotton swab to form about a 1 cm diameter donut on skin on the inner aspect of the upper arm. Then a separate cotton swab was dipped in a 2% SADBE solution (w/v) in DMSO, and the swab was then used to apply about 10-20 mg of solution over about a 1 cm diameter circle within the petrolatum donut. Immediately after application, the application site was covered with TEGADERM. Subjects were advised to remove the TEGADERM and rinse and wipe the spot three hours later. The group A subjects then returned for blood draws on days 15 and 57 and were queried about adverse events on those dates.
# PBMC were isolated using SepMate PBMC isolation tubes (Stem Cell Technologies, Vancouver, Canada) and Ficoll-Paque according to the manufacturer's instructions. PBMC were isolated and suspended in negative control medium at 2 million cells/ml. PBMC suspension (100 μL) was added to 100 μL of medium in quadruplicate in 96-well plates. The plates were prepared in advance and stored at −70° C. The wells were in five different conditions in quadruplicate with these final concentrations after addition of the 100 μL of PBMC suspension in negative control medium. • 1. Negative control in medium (RPMI with glutamine and pen/strep, supplemented with 10% human A/B serum). • 2. Medium plus 16 μg/ml protein from heat-inactivated HSV-1-infected Vero cell extracts. • 3. Medium plus heat-inactivated HSV-1 cell-free virus at a final 7.5 million pfu/ml. • 4. Medium plus Candida cell extract. (Greer item number M15A50, 20,000 pnu/ml allergenic extract mixed molds Candida albicans, was diluted 1/50 into medium). • 5. Positive control, medium plus 10 μg/ml concanavalin A.
# Two plates were created for each subject at each collection point. One plate was incubated for 2 days at 37° C. in a humidified 5% CO2 atmosphere and then RNA was isolated from the pooled contents of the 4 wells of a given condition for a specific patient, and the RNA was stored at −70° C. and subsequently used for quantitative real time PCR analysis of gene expression of 41 immune-related genes.
# As noted above, after 2 days of growth of the PBMC in a 37° C. humidified 5% CO2 incubator in a 96-well plate, four wells of a single condition (negative control, positive control, heat-inactivated HSV-1, HSV-1-infected cell extracts, or Candida extract) with cells from a single subject (200 μL in each well) were pooled, and the RNA was immediately isolated with Trizol reagent and chloroform by Qiagen RNeasy MiniElute clean up kit Qiagen cat #74204, according to manufacturer's instructions into a final volume of 13 μL, and then flash frozen on powdered dry ice, and stored at −70° C. in aliquots of 3 μL for RNA quantification and 10 μL for PCR analysis.
# RNA was preamplified with the Qiagen RT2 PreAMP cDNA synthesis kit (Ref. 330451) and custom RT2 PreAmp primer mix (Ref. 330141) starting with about 50 ng RNA according to the procedure of RT preamp cDNA synthesis handbook date March 2011, pages 17-20. The amplification reactions (final 120 μL) were frozen at −70° C. and used for qPCR analysis the next day.
# qPCR was done with the Qiagen RT PCR profiler gene analysis kit (catalog number 330451) using RT2 Sybr Green Rox qPCR Mastermix (24) (Part 330523) and Custom RT2 PCR array plates (Ref. 330171). For this 675 μL 2×RT2 SYBR green mastermix, 51 μL pre-AMP synthesis reaction, and 623 μL RNase free water were mixed, and then 25 μL of the mixture was added to 48 wells on the left or right half of the custom PCR plate. The PCR instrument was Applied Biosystems 7900HT fast real time PCR. […]
smiles,measurement,setting,value
"CCCCOc1c(OCCCC)c(=O)c1=O [SADBE, 3,4-Dibutoxy-3-cyclobutene-1,2-dione]",IFNB1 ratio of PBMC absolute gene expression day 57/day 1,HSV-infected cell extracts,0.65
same,IFNG ratio of PBMC absolute gene expression day 15/day 1,HSV-infected cell extracts,1.26
same,IFNG ratio of PBMC absolute gene expression day 57/day 1,HSV-infected cell extracts,5.72
same,IL1B ratio of PBMC absolute gene expression day 15/day 1,HSV-infected cell extracts,1.48
same,IL1B ratio of PBMC absolute gene expression day 57/day 1,HSV-infected cell extracts,21.45
same,IL1R1 ratio of PBMC absolute gene expression day 15/day 1,HSV-infected cell extracts,0.89
same,IL1R1 ratio of PBMC absolute gene expression day 57/day 1,HSV-infected cell extracts,1.11
same,IL1RN ratio of PBMC absolute gene expression day 15/day 1,HSV-infected cell extracts,0.94
same,IL1RN ratio of PBMC absolute gene expression day 57/day 1,HSV-infected cell extracts,0.79
same,IL2 ratio of PBMC absolute gene expression day 15/day 1,HSV-infected cell extracts,0.98
same,IL2 ratio of PBMC absolute gene expression day 57/day 1,HSV-infected cell extracts,2.48
same,IL4 ratio of PBMC absolute gene expression day 15/day 1,HSV-infected cell extracts,0.77
same,IL4 ratio of PBMC absolute gene expression day 57/day 1,HSV-infected cell extracts,0.89
same,IL5 ratio of PBMC absolute gene expression day 15/day 1,HSV-infected cell extracts,0.83
same,IL5 ratio of PBMC absolute gene expression day 57/day 1,HSV-infected cell extracts,0.50
same,IL8 ratio of PBMC absolute gene expression day 15/day 1,HSV-infected cell extracts,0.99
same,IL8 ratio of PBMC absolute gene expression day 57/day 1,HSV-infected cell extracts,3.86
same,IL10 ratio of PBMC absolute gene expression day 15/day 1,HSV-infected cell extracts,1.19
same,IL10 ratio of PBMC absolute gene expression day 57/day 1,HSV-infected cell extracts,3.29
same,IL12A ratio of PBMC absolute gene expression day 15/day 1,HSV-infected cell extracts,0.90
same,IL12A ratio of PBMC absolute gene expression day 57/day 1,HSV-infected cell extracts,0.89
same,IL12B ratio of PBMC absolute gene expression day 15/day 1,HSV-infected cell extracts,0.80
same,IL12B ratio of PBMC absolute gene expression day 57/day 1,HSV-infected cell extracts,0.23
same,IL13 ratio of PBMC absolute gene expression day 15/day 1,HSV-infected cell extracts,1.01
same,IL13 ratio of PBMC absolute gene expression day 57/day 1,HSV-infected cell extracts,2.28
same,IL15 ratio of PBMC absolute gene expression day 15/day 1,HSV-infected cell extracts,0.93
same,IL15 ratio of PBMC absolute gene expression day 57/day 1,HSV-infected cell extracts,0.87
same,IL16 ratio of PBMC absolute gene expression day 15/day 1,HSV-infected cell extracts,1.03
same,IL16 ratio of PBMC absolute gene expression day 57/day 1,HSV-infected cell extracts,1.02
same,JAK2 ratio of PBMC absolute gene expression day 15/day 1,HSV-infected cell extracts,0.86
same,JAK2 ratio of PBMC absolute gene expression day 57/day 1,HSV-infected cell extracts,0.82
same,LTA ratio of PBMC absolute gene expression day 15/day 1,HSV-infected cell extracts,1.03
same,LTA ratio of PBMC absolute gene expression day 57/day 1,HSV-infected cell extracts,0.99
same,LYZ ratio of PBMC absolute gene expression day 15/day 1,HSV-infected cell extracts,0.73
same,LYZ ratio of PBMC absolute gene expression day 57/day 1,HSV-infected cell extracts,0.29
same,MX1 ratio of PBMC absolute gene expression day 15/day 1,HSV-infected cell extracts,0.89
same,MX1 ratio of PBMC absolute gene expression day 57/day 1,HSV-infected cell extracts,0.66
same,NOD1 ratio of PBMC absolute gene expression day 15/day 1,HSV-infected cell extracts,1.04
same,NOD1 ratio of PBMC absolute gene expression day 57/day 1,HSV-infected cell extracts,0.89
same,SPP1 ratio of PBMC absolute gene expression day 15/day 1,HSV-infected cell extracts,2.09
same,SPP1 ratio of PBMC absolute gene expression day 57/day 1,HSV-infected cell extracts,5.38
same,STAT1 ratio of PBMC absolute gene expression day 15/day 1,HSV-infected cell extracts,0.90
same,STAT1 ratio of PBMC absolute gene expression day 57/day 1,HSV-infected cell extracts,0.91
same,STAT4 ratio of PBMC absolute gene expression day 15/day 1,HSV-infected cell extracts,0.89
same,STAT4 ratio of PBMC absolute gene expression day 57/day 1,HSV-infected cell extracts,1.01
same,TNF ratio of PBMC absolute gene expression day 15/day 1,HSV-infected cell extracts,1.17
same,TNF ratio of PBMC absolute gene expression day 57/day 1,HSV-infected cell extracts,1.2
same,TNFSF10 ratio of PBMC absolute gene expression day 15/day 1,HSV-infected cell extracts,0.84
same,TNFSF10 ratio of PBMC absolute gene expression day 57/day 1,HSV-infected cell extracts,0.88
same,TNFSF13B ratio of PBMC absolute gene expression day 15/day 1,HSV-infected cell extracts,0.93
same,TNFSF13B ratio of PBMC absolute gene expression day 57/day 1,HSV-infected cell extracts,1.07
same,CCL2 ratio of PBMC absolute gene expression day 15/day 1,Neg. control,0.35
same,CCL2 ratio of PBMC absolute gene expression day 57/day 1,Neg. control,1.15
same,CCL3 ratio of PBMC absolute gene expression day 15/day 1,Neg. control,0.47
same,CCL3 ratio of PBMC absolute gene expression day 57/day 1,Neg. control,1.79
same,CCL7 ratio of PBMC absolute gene expression day 15/day 1,Neg. control,0.25
same,CCL7 ratio of PBMC absolute gene expression day 57/day 1,Neg. control,1.35
same,CCR5 ratio of PBMC absolute gene expression day 15/day 1,Neg. control,1.00
same,CCR5 ratio of PBMC absolute gene expression day 57/day 1,Neg. control,1.19
same,CD80 ratio of PBMC absolute gene expression day 15/day 1,Neg. control,0.66
same,CD80 ratio of PBMC absolute gene expression day 57/day 1,Neg. control,1.16
same,CXCL2 ratio of PBMC absolute gene expression day 15/day 1,Neg. control,0.51
same,CXCL2 ratio of PBMC absolute gene expression day 57/day 1,Neg. control,1.33
same,CXCL5 ratio of PBMC absolute gene expression day 15/day 1,Neg. control,0.36
same,CXCL5 ratio of PBMC absolute gene expression day 57/day 1,Neg. control,1.78
same,CXCL9 ratio of PBMC absolute gene expression day 15/day 1,Neg. control,2.50
same,CXCL9 ratio of PBMC absolute gene expression day 57/day 1,Neg. control,4.93
same,CXCL10 ratio of PBMC absolute gene expression day 15/day 1,Neg. control,0.94
same,CXCL10 ratio of PBMC absolute gene expression day 57/day 1,Neg. control,0.68
same,CXCL11 ratio of PBMC absolute gene expression day 15/day 1,Neg. control,0.62
same,CXCL11 ratio of PBMC absolute gene expression day 57/day 1,Neg. control,0.83
same,DDX58 ratio of PBMC absolute gene expression day 15/day 1,Neg. control,0.82
same,DDX58 ratio of PBMC absolute gene expression day 57/day 1,Neg. control,0.83
same,FOXP3 ratio of PBMC absolute gene expression day 15/day 1,Neg. control,0.95
same,FOXP3 ratio of PBMC absolute gene expression day 57/day 1,Neg. control,1.07
same,GATA3 ratio of PBMC absolute gene expression day 15/day 1,Neg. control,1.06
same,GATA3 ratio of PBMC absolute gene expression day 57/day 1,Neg. control,0.84
same,ICAM1 ratio of PBMC absolute gene expression day 15/day 1,Neg. control,1.10
same,ICAM1 ratio of PBMC absolute gene expression day 57/day 1,Neg. control,1.34
same,IFNA1 ratio of PBMC absolute gene expression day 15/day 1,Neg. control,1.20
same,IFNA1 ratio of PBMC absolute gene expression day 57/day 1,Neg. control,1.47
same,IFNB1 ratio of PBMC absolute gene expression day 15/day 1,Neg. control,0.99
same,IFNB1 ratio of PBMC absolute gene expression day 57/day 1,Neg. control,0.73
same,IFNG ratio of PBMC absolute gene expression day 15/day 1,Neg. control,1.05
same,IFNG ratio of PBMC absolute gene expression day 57/day 1,Neg. control,1.24
same,IL1B ratio of PBMC absolute gene expression day 15/day 1,Neg. control,0.16
same,IL1B ratio of PBMC absolute gene expression day 57/day 1,Neg. control,2.09
same,IL1R1 ratio of PBMC absolute gene expression day 15/day 1,Neg. control,1.00
same,IL1R1 ratio of PBMC absolute gene expression day 57/day 1,Neg. control,0.6
same,IL1RN ratio of PBMC absolute gene expression day 15/day 1,Neg. control,0.90
same,IL1RN ratio of PBMC absolute gene expression day 57/day 1,Neg. control,1.35
same,IL2 ratio of PBMC absolute gene expression day 15/day 1,Neg. control,0.80
same,IL2 ratio of PBMC absolute gene expression day 57/day 1,Neg. control,1.21
same,IL4 ratio of PBMC absolute gene expression day 15/day 1,Neg. control,0.86
same,IL4 ratio of PBMC absolute gene expression day 57/day 1,Neg. control,0.98
same,IL5 ratio of PBMC absolute gene expression day 15/day 1,Neg. control,0.99
same,IL5 ratio of PBMC absolute gene expression day 57/day 1,Neg. control,0.39
same,IL8 ratio of PBMC absolute gene expression day 15/day 1,Neg. control,0.62
same,IL8 ratio of PBMC absolute gene expression day 57/day 1,Neg. control,2.38
same,IL10 ratio of PBMC absolute gene expression day 15/day 1,Neg. control,0.90
same,IL10 ratio of PBMC absolute gene expression day 57/day 1,Neg. control,1.04
same,IL12A ratio of PBMC absolute gene expression day 15/day 1,Neg. control,0.84
same,IL12A ratio of PBMC absolute gene expression day 57/day 1,Neg. control,0.98
same,IL12B ratio of PBMC absolute gene expression day 15/day 1,Neg. control,0.40
same,IL12B ratio of PBMC absolute gene expression day 57/day 1,Neg. control,1.38
same,IL13 ratio of PBMC absolute gene expression day 15/day 1,Neg. control,0.88
same,IL13 ratio of PBMC absolute gene expression day 57/day 1,Neg. control,1.69
same,IL15 ratio of PBMC absolute gene expression day 15/day 1,Neg. control,0.95
same,IL15 ratio of PBMC absolute gene expression day 57/day 1,Neg. control,1.13
same,IL16 ratio of PBMC absolute gene expression day 15/day 1,Neg. control,1.06
same,IL16 ratio of PBMC absolute gene expression day 57/day 1,Neg. control,0.89
same,JAK2 ratio of PBMC absolute gene expression day 15/day 1,Neg. control,0.91
same,JAK2 ratio of PBMC absolute gene expression day 57/day 1,Neg. control,0.93
same,LTA ratio of PBMC absolute gene expression day 15/day 1,Neg. control,0.94
